In this assay the target is T1, OleP (CYP107D1) (Streptomyces antibioticus, UniProt Q59819).
T1 sequence (Q59819 1-407): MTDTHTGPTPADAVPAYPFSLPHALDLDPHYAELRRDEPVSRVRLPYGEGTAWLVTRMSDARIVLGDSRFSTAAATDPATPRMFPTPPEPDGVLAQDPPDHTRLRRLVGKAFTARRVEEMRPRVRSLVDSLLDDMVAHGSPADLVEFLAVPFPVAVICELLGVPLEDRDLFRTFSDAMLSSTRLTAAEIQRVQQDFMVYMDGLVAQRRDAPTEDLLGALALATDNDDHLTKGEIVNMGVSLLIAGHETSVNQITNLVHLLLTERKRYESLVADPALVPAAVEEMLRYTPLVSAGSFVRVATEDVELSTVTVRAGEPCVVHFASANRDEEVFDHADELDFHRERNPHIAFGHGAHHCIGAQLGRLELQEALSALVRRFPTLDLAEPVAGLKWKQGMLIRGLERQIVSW
The experiment in a line: UV-visible Soret spectral titration (type I shift), global hyperbolic fit. Type of assay: binding. The source says: UV-visible Soret spectral titration (type I shift), global hyperbolic fit on OleP (CYP107D1)

In general, Kd refers to a measure of binding affinity in units of concentration.

Take `CC[C@H]1OC(=O)[C@H](C)[C@@H](O)[C@H](C)[C@@H](O)[C@@H](C)C[C@@H](C)C(=O)[C@H](C)[C@@H](O)[C@H]1C` [6DEB]: the Kd turned out to be 3.83 ± 0.06 µM.

The record behind these values is paper PMC9867029, “Effect of Salts on the Conformational Dynamics of the Cytochrome P450 OleP” (Molecules, 2023).
